This is an account of results in US20010049372A1, “Antiviral nucleoside analogues” (BioChem Pharma Inc., priority 1998, published 2001).

The nature of data set [1]: Preliminary pharmacokinetic study in male adult rats. It counts as in vivo. Conditions: rat; for half-life / AUC / Cmax: male, plasma; for AUC: read-out: AUC; for Cmax: read-out: Cmax. The procedure: The bioavailability of the compounds were evaluated in male adult rats dosed intravenously through the tail vein (5 mg/kg) and orally (20 mg/kg). The plasma samples were collected at 2, 5, 15, 30, 60, 90, 120 and 240 minutes after intravenous dosing and 5, 15, 30, 60, 90, 120, 240 and 360 minutes after oral dosing.
Blood samples (1 ml) were collected from the rat tails into a vacutainer containing EDTA (3 ml) for both iv and po administrations. Plasma samples were prepared by centrifugation at 2000 ×g for 15 minutes at 4° C.
Plasma samples (diluted to 1 ml with water) were loaded onto the Abselut Nexus sorbent (# 1210-3100 ) and drawn through under low vacuum (approximately 5′′ Hg). One milliliter of deionized water was added to the sorbent and drawn through under vacuum. The extraction column was dried for 1 minute using a high vacuum (>10′′ Hg). One milliliter of methanol was added to the Abselut Nexus column and the eluent was collected at 1-2 ml/min. The eluent was evaporated to dryness using a Speed Vac, and the samples were reconstituted in 120 μl H2O; 100 μl was used for injection.

Another data set has as its system HepG2 cells. Nature of the data set: Mitochondria DNA toxicity assay. It counts as cell-based. To be noted: 28 days, up to 100 μM, the highest concentration tested (FIG. 1). The procedure:
Mitochondria DNA (mtDNA) toxicity of the compound A (−) was tested in HepG2 cells. The cells were cultured for 28 days under the compound treatment. Th cells were passaged once a week. However, the cell culture medium containing proper concentration of the compound was changed twice a week. Zalcitabine was used as a control. The toxicity was determined by measuring content ratio of mtDNA and nuclear DNA (28s rDNA) by a southern hybridization assay (de Muys et al., 1999). […]

Data set [2] in a line: Pharmacokinetic study in male and female rats (single dose iv or po). It is filed as in vivo, rat. To be noted: for Cmax / bioavailability / Tmax: plasma; for Cmax: read-out: Cmax; for Tmax: read-out: Tmax (converted). As to the method: Compound A(−), DAPD, and DXG were administrated as a single dose, either intravenously through the jugular vein at 10 mg/kg or orally at 20, 125, 500, 1000 or 2000 mg/kg. All rats were fasted for 12 hours prior to po dosing treatment. The vehicle used for both iv and po administrations was 0.1% carboxymethylcellulose and 0.1% Tween 80 in distilled water, acidified to pH 3.15 with 1N HCl. Blood samples were taken from rats at the times shown in the schedule below for all oral dosing. From a total of 10 rats for each administration, seven time points were taken for the intravenous through the jugular vein dosing (2, 5, 15, 30, 60, 120 and 240 min) and for the oral dosing (5-360 min) at 20 mg/kg, whereas two additional time points at 480 and 1440 min were taken for the oral doses of 125-2000 mg/kg. As a result, each time point was in quadruplicate, except for the 1440 minute time point when blood samples were taken through the jugular vein from all the rats prior to being euthanized.
Blood samples (1 ml) were collected from the rat tails into a vacutainer containing EDTA (3 ml) for both iv and po administrations. Plasma samples were prepared by centrifugation at 2000×g for 15 minutes at 4° C.
Plasma samples (diluted to 1 ml with water) were loaded onto the Abselut Nexus sorbent (#1210-3100) and drawn through under low vacuum (approximately 5′′ Hg). One milliliter of deionized water was added to the sorbent and drawn through under vacuum. The extraction column was dried for 1 minute using a high vacuum (>10′′ Hg). One milliliter of methanol was added to the Abselut Nexus column and the eluent was collected at 1-2 ml/min. The eluent was evaporated to dryness using a Speed Vac, and the samples were reconstituted in 120 μl H2O; 100 μl was used for injection.

The test system of the next data set is HT1080. Briefly: Cellular toxicity by [3H]-thymidine uptake. To be noted: Table 4; 72 hrs. It counts as cell-based. An outline of the steps:
(§1)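 Cells plated at 1-2×10^3/well, pre-incubated 24 h, then exposed 72 h to 10-fold serial compound dilutions (10^−4 M to 10^−10 M). [3H]-thymidine was added for the final 18 h and DNA incorporation counted after hypotonic lysis and harvesting. CC50 derived from cpm relative to untreated controls.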

In another data set the test system is HepG-2. Briefly: Cellular toxicity by [3H]-thymidine uptake. It counts as cell-based. Conditions: Table 4; 72 hrs. In short, it runs like this: as §1

Read-outs that look alike come from different tables or passages of the source.

The term half-life denotes how long it takes for the measured level to halve. Read a high half-life as slow loss. A word on the AUC: it is the area under the concentration-time curve, a measure of exposure. In general, Cmax refers to the maximum level reached in the sampled fluid or tissue. By bioavailability is commonly meant the share of a dose that reaches the circulation, judged against a reference dose that is usually intravenous. By Tmax is commonly meant the time from dosing to the highest level. `Nc1nc(NC2CC2)c2ncn([C@H]3CO[C@@H](CO)O3)c2n1` [Compound A (-), (−)-(2R,4R)-2-hydroxymethyl-4-(2′-amino-6′-cyclopropylamino-purine-9′-yl)-1,3-dioxolane]: in data set [1] (iv 5 mg/kg), the half-life is 22.2 min, the AUC was 4740 ng·h/mL and the Cmax was determined as 14300 ng/mL. Also, in data set [1] (oral 20 mg/kg), the half-life is 38.4 min, the AUC came out at 8640 ng·h/mL, the maximum concentration (Cmax) was 4200 ng/mL and the “Oral BA (%)” value was found to be 45.56%. Further, in the data set on HepG2 cells, the “mtDNA toxicity (content ratio of mtDNA and nuclear DNA, southern hybridization)” value is given as “did not show significant mtDNA toxicity”. For the same compound, in data set [2] (female rat, iv 10 mg/kg), the “AUG” value turned out to be 328 µg·min/mL, the “T-half elimination” value was found to be 36.9 min and the Cmax was determined as 22900 ng/mL. Further, in data set [2] (female rat, po 20 mg/kg), the “AUG” value was 602 µg·min/mL, the “T-half elimination” value is listed as 57.1 min, the bioavailability was 92% and the Cmax stood at 5500 ng/mL. Besides, in data set [2] (female rat, po 20 mg/kg), the Tmax was 22.8 min. In addition, in data set [2] (male rat, iv 10 mg/kg), the “AUG” value was found to be 304 µg·min/mL, the “T-half elimination” value amounted to 34.2 min and the Cmax came out at 19200 ng/mL. In addition, in data set [2] (male rat, po 20 mg/kg), the “AUG” value amounted to 600 µg·min/mL, the “T-half elimination” value turned out to be 72.5 min, the bioavailability worked out at 99% and the Cmax worked out at 4600 ng/mL. Besides, in data set [2] (male rat, po 20 mg/kg), the Tmax is 23.4 min.

With `Nc1ccn([C@@H]2CS[C@H](CO)O2)c(=O)n1` [Lamivudine, lamivudine], in the data set on HT1080, the “CC50 (μM) [^3H-]TTP incorporation in: HT1080” value is listed as >500/100. Further, the “CC50 (μM) [^3H-]TTP incorporation in: HepG2” value with HepG-2 was 350/100.
